Laboratory results from patent US11441181B2, “miRNA-124 as a biomarker” (priority 2013, dated 2022).

How the values were obtained:
ADA-M R5 HIV = experiment: Treatment of PBMCs infected with ADA-M R5 HIV strain; format: cell-based
Method: For that purpose, peripheral blood mononuclear cells (PBMCs) of five healthy donors have been isolated by centrifugation on a FICOLL gradient. The cells have then been cultivated at 37° C., 5% CO2 to a density of 1×10^6 cells/mL in RPMI Glutamax medium (Life Technologies Ref 61870-010) supplemented with 10% fetal calf serum (FCS) (Thermo Fischer Ref SV30160.03) 1000 U/mL of IL2 (Peprotech Ref 200-02) and […] of PHA (Roche ref 1249738). Three days later, cells have been pooled and resuspended to a density of 1×10^6 cells/mL in RPMI Glutamax medium supplemented with 10% fetal calf serum (FCS) 1000 U/mL of IL-2 and distributed in 12 wells plates (Falcon Ref 353043) with 1.2 mL/well (4 wells per condition).
HIV-1 infection has been performed with 1 ng of Ada-M R5 HIV strain/well. Cells were treated for 6 days with 1.2 mL/well of 60 μM solution of 8-chloro-N-[4-(trifluoromethoxy)phenyl]quinolin-2-amine or with 0.12% DMSO (Sigma Ref D4818 as negative control).

[1] = tested on: HIV-1 and HIV-2 T cell-tropic laboratory strains as well as clinical isolates of different subtypes; conditions: HIV-1 and HIV-2 laboratory strains and clinical isolates; cited from earlier work

FC(F)(F)Oc1ccc(Nc2ccc3cccc(Cl)c3n2)cc1 [8-chloro-N-[4-(trifluoromethoxy)phenyl]quinolin-2-amine]
effect on viruses in infected PBMCs (ADA-M R5 HIV): removal of the viruses | inhibition of replication in PBMC, active concentrations [1]: nM concentrations range
